Data set [1] in a line: Wild-type MDCK permeability and efflux assay (Papp, efflux ratio). It is filed as in vitro ADME. As to conditions: dog, pH 7.4, wild-type MDCK cells; for efflux ratio at 1 h, 10 μM: Papp B>A/Papp A>B, read-out: ER WT (Efflux Ratio). In outline: (§1)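 Bidirectional transport measured over 1 h at 37 °C with 10 μM test compound (0.1% DMSO) in pH 7.4 HEPES-buffered HBSS across MDR1-transfected and wild-type MDCK monolayers, analysed by LC-MS/MS. Efflux ratio is B>A over A>B Papp; effective efflux ratio divides MDR1-MDCK ER by wild-type ER.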

The target of data set [2] is T1, MDR1 (P-glycoprotein) (Homo sapiens, UniProt P08183).
T1 construct: host or cells: MDCK (MDR1-MDCK; wild-type MDCK as comparator)
Briefly: MDR1-MDCK permeability and efflux assay (Papp, efflux ratio, effective efflux ratio). It is filed as in vitro ADME. As to conditions: dog; for Papp A→B at 1 h, 10 μM: pH 7.4, read-out: Papp AB MDR1. The method, boiled down:
as §1

The mark [3] stands for this setting: MDCK-MDR1, pH 7.4, ER(MDR1-MDCK)/ER(wild-type MDCK), read-out: EER (Effective Efflux Ratio).
Where [4] appears, read: MDCK-MDR1, pH 7.4, Papp B>A/Papp A>B, MDR1-MDCK cells, read-out: ER MDR1 (Efflux Ratio).

Read-outs that look alike come from different tables or passages of the source.

T1 sequence (P08183 whole entry): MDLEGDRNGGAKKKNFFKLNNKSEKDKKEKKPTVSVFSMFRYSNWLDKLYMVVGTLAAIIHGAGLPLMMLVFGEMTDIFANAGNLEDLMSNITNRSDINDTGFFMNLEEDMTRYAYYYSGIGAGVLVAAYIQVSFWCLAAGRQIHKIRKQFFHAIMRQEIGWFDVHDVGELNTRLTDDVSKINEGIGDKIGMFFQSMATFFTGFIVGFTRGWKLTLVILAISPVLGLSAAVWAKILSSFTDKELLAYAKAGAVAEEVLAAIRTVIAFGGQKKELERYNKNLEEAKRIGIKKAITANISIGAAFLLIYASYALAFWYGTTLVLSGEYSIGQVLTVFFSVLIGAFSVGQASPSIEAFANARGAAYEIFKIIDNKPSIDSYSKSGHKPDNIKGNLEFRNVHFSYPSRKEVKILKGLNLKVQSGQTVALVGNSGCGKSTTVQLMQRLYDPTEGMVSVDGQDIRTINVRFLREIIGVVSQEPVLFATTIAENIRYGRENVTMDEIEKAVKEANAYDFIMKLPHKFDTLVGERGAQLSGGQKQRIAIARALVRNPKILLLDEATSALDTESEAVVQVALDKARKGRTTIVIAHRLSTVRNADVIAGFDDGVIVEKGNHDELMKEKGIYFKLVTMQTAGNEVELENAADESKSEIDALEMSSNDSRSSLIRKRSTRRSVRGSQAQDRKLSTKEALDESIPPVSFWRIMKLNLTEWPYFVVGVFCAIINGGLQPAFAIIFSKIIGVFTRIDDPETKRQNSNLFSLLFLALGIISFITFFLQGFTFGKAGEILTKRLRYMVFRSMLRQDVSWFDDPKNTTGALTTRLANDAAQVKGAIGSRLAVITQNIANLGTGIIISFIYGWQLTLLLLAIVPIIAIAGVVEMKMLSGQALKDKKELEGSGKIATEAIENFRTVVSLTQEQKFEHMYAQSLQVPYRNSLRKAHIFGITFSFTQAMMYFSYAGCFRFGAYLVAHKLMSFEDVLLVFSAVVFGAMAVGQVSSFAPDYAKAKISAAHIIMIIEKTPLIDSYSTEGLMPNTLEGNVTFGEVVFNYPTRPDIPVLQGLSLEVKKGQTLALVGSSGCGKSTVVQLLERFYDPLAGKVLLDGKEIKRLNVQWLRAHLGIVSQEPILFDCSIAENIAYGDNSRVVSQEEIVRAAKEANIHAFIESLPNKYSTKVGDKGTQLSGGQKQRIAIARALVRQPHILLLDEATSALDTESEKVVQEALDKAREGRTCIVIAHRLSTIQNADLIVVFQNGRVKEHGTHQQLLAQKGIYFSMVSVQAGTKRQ

Turning to `Cc1nccc(N2CC3(CN(C(=O)N4c5ccc(Cl)cc5OCC4C)C3)C2)n1` (centres unmarked) [21-8], the Papp A→B at 1 h, 10 μM in data set [1] and in data set [2] (MDR1-MDCK cells) was above 20 ×10⁻⁶ cm/s in each case. For the same compound, the efflux ratio at 1 h, 10 μM in data set [1] is below 1; in data set [2] (setting [3]), 2 to 3; in data set [2] (setting [4]), 1 to 2.
Consider `CC1COc2cc(F)ccc2N1C(=O)N1CC2(C1)CN(c1cnccn1)C2` (single isomer, unassigned) [1-65-B], for which the Papp A→B at 1 h, 10 μM in data set [1] and in data set [2] (MDR1-MDCK cells) was above 20 ×10⁻⁶ cm/s each time. In addition, the figures for the efflux ratio at 1 h, 10 μM in data set [1], in data set [2] (setting [3]) and in data set [2] (setting [4]) were 1 to 2, below 1 and 1 to 2, respectively.
With `O=C(N1CC2(C1)CN(c1cccnc1)C2)N1CCOc2cc(Cl)ccc21` [1-72], the Papp A→B at 1 h, 10 μM in data set [1] and in data set [2] (MDR1-MDCK cells) was above 20 ×10⁻⁶ cm/s throughout. Besides, the values for the efflux ratio at 1 h, 10 μM in data set [1], in data set [2] (setting [3]) and in data set [2] (setting [4]) were below 1, 1 to 2 and below 1, respectively.
Turning to `CC1COc2cc(Cl)ccc2N1C(=O)N1CC2(C1)CN(c1ccccn1)C2` (single isomer, unassigned) [1-60-B], the Papp A→B at 1 h, 10 μM in data set [1] and in data set [2] (MDR1-MDCK cells) was above 20 ×10⁻⁶ cm/s in each case. The efflux ratio at 1 h, 10 μM in data set [1] is below 1; in data set [2] (setting [3]), 1 to 2; in data set [2] (setting [4]), below 1.
On to `Cc1cncc(N2CC3(CN(C(=O)N4c5ccc(Cl)cc5OCC4C)C3)C2)n1` (centres unmarked) [21-3], for which the Papp A→B at 1 h, 10 μM in data set [1] and in data set [2] (MDR1-MDCK cells) was above 20 ×10⁻⁶ cm/s throughout. The efflux ratio at 1 h, 10 μM in data set [1] is below 1; in data set [2] (setting [3]), 1 to 2; in data set [2] (setting [4]), 1 to 2.
Consider `CC1COc2cc(Cl)ccc2N1C(=O)N1CC2(C1)CN(c1ccccn1)C2` (centres unmarked) [1-60], for which the Papp A→B at 1 h, 10 μM in data set [1] and in data set [2] (MDR1-MDCK cells) was above 20 ×10⁻⁶ cm/s in each case. The efflux ratio at 1 h, 10 μM in data set [1], in data set [2] (setting [3]) and in data set [2] (setting [4]) was below 1 throughout.
Regarding `CC1COc2cc(Cl)ccc2N1C(=O)N1CC2(C1)CN(c1ncc(F)cn1)C2` (single isomer, unassigned) [18-2-B], the Papp A→B at 1 h, 10 μM in data set [1] and in data set [2] (MDR1-MDCK cells) was above 20 ×10⁻⁶ cm/s each time. Besides, the efflux ratio at 1 h, 10 μM in data set [1], in data set [2] (setting [3]) and in data set [2] (setting [4]) was below 1 in each case.
Turning to `O=C(N1CC2(C1)CN(c1cc(F)ccn1)C2)N1CCOc2cc(Cl)ccc21` [1-70], the Papp A→B at 1 h, 10 μM in data set [1] and in data set [2] (MDR1-MDCK cells) was above 20 ×10⁻⁶ cm/s in each case. Besides, the results for the efflux ratio at 1 h, 10 μM in data set [1], in data set [2] (setting [3]) and in data set [2] (setting [4]) were 1 to 2, below 1 and 1 to 2, respectively.
Turning to `CC1COc2cc(Cl)ccc2N1C(=O)N1CC2(C1)CN(c1nccc(C(F)(F)F)n1)C2` (centres unmarked) [21-10], the Papp A→B at 1 h, 10 μM in data set [1] and in data set [2] (MDR1-MDCK cells) was 10 to 20 ×10⁻⁶ cm/s in each case. Further, the efflux ratio at 1 h, 10 μM in data set [1], in data set [2] (setting [3]) and in data set [2] (setting [4]) was 1 to 2 throughout.
As for `O=C(N1CC2(C1)CN(c1cnc(F)cn1)C2)N1CCOc2cc(Cl)ccc21` [1-18], the Papp A→B at 1 h, 10 μM in data set [1] and in data set [2] (MDR1-MDCK cells) was above 20 ×10⁻⁶ cm/s throughout. In addition, the efflux ratio at 1 h, 10 μM in data set [1], in data set [2] (setting [3]) and in data set [2] (setting [4]) was below 1 in each case.
As to `Cc1cnc(N2CC3(CN(C(=O)N4c5ccc(Cl)cc5OCC4C)C3)C2)nc1` (single isomer, unassigned) [20-13-B], the Papp A→B at 1 h, 10 μM in data set [1] and in data set [2] (MDR1-MDCK cells) was above 20 ×10⁻⁶ cm/s in each case. Besides, the efflux ratio at 1 h, 10 μM in data set [1] was below 1; in data set [2] (setting [3]) it was 1 to 2; in data set [2] (setting [4]), 1 to 2.
For `CC1COc2cc(Cl)ccc2N1C(=O)N1CC2(C1)CN(c1cnccn1)C2` (single isomer, unassigned) [1-58-B], the Papp A→B at 1 h, 10 μM in data set [1] and in data set [2] (MDR1-MDCK cells) was above 20 ×10⁻⁶ cm/s in each case. In addition, the efflux ratio at 1 h, 10 μM in data set [1], in data set [2] (setting [3]) and in data set [2] (setting [4]) was 1 to 2 each time.
Turning to `CC1COc2cc(Cl)ccc2N1C(=O)N1CC2(C1)CN(c1ncccc1C#N)C2` (centres unmarked) [21-2], the Papp A→B at 1 h, 10 μM in data set [1] and in data set [2] (MDR1-MDCK cells) was above 20 ×10⁻⁶ cm/s in each case. The efflux ratio at 1 h, 10 μM in data set [1] was below 1; in data set [2] (setting [3]), 1 to 2; in data set [2] (setting [4]) it was 1 to 2.
As for `Cc1cncc(N2CC3(CN(C(=O)N4CCOc5cc(Cl)ccc54)C3)C2)n1` [1-22], the Papp A→B at 1 h, 10 μM in data set [1] and in data set [2] (MDR1-MDCK cells) was above 20 ×10⁻⁶ cm/s throughout. Further, the efflux ratio at 1 h, 10 μM in data set [1] is below 1; in data set [2] (setting [3]), 1 to 2; in data set [2] (setting [4]), 1 to 2.
Consider `O=C(N1CC2(C1)CN(c1ccc(F)cn1)C2)N1CCOc2cc(F)ccc21` [1-64], for which the Papp A→B at 1 h, 10 μM in data set [1] and in data set [2] (MDR1-MDCK cells) was above 20 ×10⁻⁶ cm/s throughout. The efflux ratio at 1 h, 10 μM in data set [1] was below 1; in data set [2] (setting [3]), 1 to 2; in data set [2] (setting [4]), 1 to 2.
For `CC1COc2cc(Cl)ccc2N1C(=O)N1CC2(C1)CN(c1ncncc1F)C2` (centres unmarked) [21-5], the Papp A→B at 1 h, 10 μM in data set [1] and in data set [2] (MDR1-MDCK cells) was above 20 ×10⁻⁶ cm/s in each case. Besides, the efflux ratio at 1 h, 10 μM is 1 to 2 in data set [1], below 1 in data set [2] (setting [3]) and 1 to 2 in data set [2] (setting [4]).
Turning to `CC1COc2cc(Cl)ccc2N1C(=O)N1CC2(C1)CN(c1noc3ccccc13)C2` (centres unmarked) [21-1, (6-(benzo[d]isoxazol-3-yl)-2,6-diazaspiro[3.3]heptan-2-yl)(7-chloro-3-methyl-2,3-dihydro-4H-benzo[b][1,4]oxazin-4-yl)methanone], the Papp A→B at 1 h, 10 μM in data set [1] fell in the range of 10 to 20 ×10⁻⁶ cm/s; in data set [2] (MDR1-MDCK cells) it was 7 to 10 ×10⁻⁶ cm/s. The efflux ratio at 1 h, 10 μM is below 1 in data set [1], 2 to 3 in data set [2] (setting [3]) and 1 to 2 in data set [2] (setting [4]).
`O=C(N1CC2(C1)CN(c1cccnn1)C2)N1CCOc2cc(Cl)ccc21` [1-71]: the Papp A→B at 1 h, 10 μM in data set [1] and in data set [2] (MDR1-MDCK cells) was above 20 ×10⁻⁶ cm/s throughout. The efflux ratio at 1 h, 10 μM was below 1 in data set [1], above 3 in data set [2] (setting [3]) and 1 to 2 in data set [2] (setting [4]).
Consider `CC1COc2cc(Cl)ccc2N1C(=O)N1CC2(C1)CN(c1nn(C)c3ncccc13)C2` (single isomer, unassigned) [20-15-B], for which the Papp A→B at 1 h, 10 μM in data set [1] and in data set [2] (MDR1-MDCK cells) was above 20 ×10⁻⁶ cm/s each time. In addition, the values for the efflux ratio at 1 h, 10 μM in data set [1], in data set [2] (setting [3]) and in data set [2] (setting [4]) were below 1, 1 to 2 and below 1, respectively.
As to `Cc1cnnc(N2CC3(CN(C(=O)N4c5ccc(Cl)cc5OCC4C)C3)C2)c1` (centres unmarked) [21-4], the Papp A→B at 1 h, 10 μM in data set [1] and in data set [2] (MDR1-MDCK cells) was above 20 ×10⁻⁶ cm/s in each case. Moreover, the figures for the efflux ratio at 1 h, 10 μM in data set [1], in data set [2] (setting [3]) and in data set [2] (setting [4]) were 1 to 2, above 3 and above 3, respectively.
Turning to `COc1ccc2c(c1)OCC(C)N2C(=O)N1CC2(C1)CN(c1ccc(F)cn1)C2` (single isomer, unassigned) [1-59-B], the Papp A→B at 1 h, 10 μM in data set [1] and in data set [2] (MDR1-MDCK cells) was above 20 ×10⁻⁶ cm/s in each case. Also, the results for the efflux ratio at 1 h, 10 μM in data set [1], in data set [2] (setting [3]) and in data set [2] (setting [4]) were below 1, 1 to 2 and 1 to 2, respectively.
Take `CC1COc2cc(Cl)ccc2N1C(=O)N1CC2(C1)CN(c1ccncn1)C2` (centres unmarked) [21-6]: the Papp A→B at 1 h, 10 μM in data set [1] and in data set [2] (MDR1-MDCK cells) was above 20 ×10⁻⁶ cm/s throughout. Besides, the values for the efflux ratio at 1 h, 10 μM in data set [1], in data set [2] (setting [3]) and in data set [2] (setting [4]) were below 1, 2 to 3 and below 1, respectively.
